Experimental data as given in patent US20180256560A1 (priority 2015, published 2018).
Where “and” joins values, the source holds several entries; their conditions need not be identical. Identical values can stand only once. Like-named read-outs stand apart in the source and are kept apart here.

Key:
[1] = cited from earlier work
[2] = 20 mg/ml nicotine in the formulation; FIGS. 4.4-4.6
Experimental: Test solutions were prepared from ethanol, de-ionized water, a 20% stock solution of glycerol in de-ionized water, a 5 M NaCl solution and nicotine solutions of 40 mg/ml in either ethanol or de-ionized water. Solutions were analysed for droplet size distributions generated by an eFlow© rapid nebulizer device (PARI GmbH) which was placed at 90° to, and 15 cm from, the laser light path of a Malvern Spraytec particle sizer. A Malvern Spraytec Real Time Droplet Sizer and an Alberta Idealized Throat coupled to an Andersen Cascade Impactor (AIT/ACI) were also used to determine droplet size.
The surface to volume ratio of the droplets was calculated using the following formulae:

[3] = not given; remark: listed apart in the source
[4] = not given; remark: listed apart in the source

## CN1CCC[C@H]1c1cccnc1 [nicotine, (S)-3-(1-Methyl-2-pyrrolidinyl)pyridine]
[1]; 25% of the average 1 mg of nicotine delivered by a cigarette
  nicotine in 5 litres of arterial blood: 30 to 60 ng/mL
[1]; smokers, typical
  time to peak nicotine concentration in arterial blood: 3 to 5 min
[2]
  effect of adding nicotine on droplet size: no major shift in droplet size
1M NaCl
  enhancement of gaseous release of nicotine from the solution by salt: two-fold
10% ethanol, FIG. 3.4
  reduction of nicotine gas release by ethanol (dynamic): 90%
Decreasing pH from 8 to 3, FIG. 3.2
  effect of pH on nicotine gas release (dynamic): dramatically decreases
Increasing NaCl from 0 to 1M, FIG. 3.3
  effect of NaCl on nicotine release in gas form (dynamic): dramatically increases
[3]; 20 mg/ml nicotine, 1% ethanol, FIG. 2.3
  reduction of nicotine in gas form at equilibrium by ethanol: 90%
[3]; decreasing pH from 10 to 3, FIG. 2.2
  effect of pH on amount of nicotine in gas form at equilibrium: dramatically decreases
[3]; higher salt concentrations
  effect of metal salt on amount of gaseous nicotine at equilibrium: larger amounts of gaseous nicotine
[4]; pH 7
  nicotine molecules uncharged: approximately 10%
[4]; pH 10
  nicotine molecules uncharged: > 99% and ~100%
